B1: FRB-Casp9: catalytic domain of Casp9 fused with FRB; tested co-expressed with FKBP12-Casp9 (protein)
chain: MASRILWHEMWHEGLEEASRLYFGERNVKGMFEVLEPLHAMMERGPQTLKETSFNQAYGRDLMEAQEWCRKYMKSGNVKDLLQAWDLYYHVFRRISKLEYSGGGSGVDGFGDVGALESLRGNADLAYILSMEPCGHCLIINNVNFCRESGLRTRTGSNIDCEKLRRRFSSLHFMVEVKGDLTAKKMVLALLELAQQDHGALDCCVVVILSHGCQASHLQFPGAVYGTDGCPVSVEKIVNIFNGTSCPSLGGKPKLFFIQACGGEQKDHGFEVASTSPEDESPGSNPEPDATPFQEGLRTFDQLDAISSLPTPSDIFVSYSTFPGFVSWRDPKSGSWYVETLDDIFEQWAHSEDLQSLLLRVANAVSVKGIYKQMPGCFNFLRKKLFFKTSAS
modifications: Chimeric protein FRB-dCasp9

Tested on: T-cells
Assay: Deletion of chimeric protein-expressing T-cells with Rapamycin (Annexin-V/7AAD flow cytometry)
Format: cell-based
Conditions: 48 hours; for deletion of transduced T-cells: different concentrations of Rapamycin, live cells expressing fluorescent proteins; for deletion of T-cells expressing both eGFP and eBFP2: lowest concentration of Rapamycin, co-transduced pair
Procedure: T-cells were either transduced with eGFP alone (FIG. 2a), or co-transduced with FKBP12-dCasp9 (co-expressing eGFP) and FRB-dCasp9 (co-expressing eBFP2) (FIG. 2b). T-cells were intentionally only partially transduced so that the non-transduced T-cells would act as internal controls. […] After 48 hours, cells were stained with Annexin-V and 7AAD and analysed by flow cytometry looking at the proportion of live cells which were expressing fluorescent proteins.
FIG. 3—Function of RapCasp9 variants. T-cells were transduced with (a) eGFP alone; (b) double transduced with FKBP12-Casp9 and FRB-Casp9 co-expressed with eGFP and eBFP2 respectively; (c) transduced with FRB-FKBP12-Casp9 and (d) transduced with FRB-Casp9-FKBP12 and (e) FBP12-Casp9-2A-FRB-FRBw. Only a proportion of cells were transduced, the negative cells acted as an internal negative control. […] T-cells were then stained with Annexin-V and 7AAD and analysed by flow-cytometry. eGFP vs eBFP2 is shown on live cells as determined by Annexin-V and 7AAD staining.
T-cells were transduced with the different constructs. For the two-molecule rapCasp9 (FIG. 1a), T-cells were transduced with two vectors: one coding for FKBP12-Casp9 co-expressed with the green fluorescent protein eGFP by means of an internal ribosome entry sequence, and the other coding for FRB-Casp9 co-expressed with the blue fluorescent protein eBFP2. For the one molecule rapCasp9 (FIG. 1b), T-cells were transduced with just one vector coding for the respective rapCasp9 which are co-expressed eGFP. A construct which provided FKB12-Casp9 and FRB-FRBw was encoded in a tri-cistronic cassette whereby the FKBP12-Casp9 and FRB-FRBw were co-expressed using a FMD-2A like peptide and eGFP was co-expressed with an IRES. The T-cells were intentionally only partially transduced so within the cell culture a proportion of cells remained non-transduced to act as an internal negative control.
Following this, T-cells were stained with Annexin-V and 7AAD and analysed by flow-cytometry. By gating on the live cells, and interrogating the population of cells expressing fluorescent proteins, survival of the transduced and non-transduced populations could be clearly measured.

| Molecule | deletion of transduced T-cells | deletion of T-cells expressing both eGFP and eBFP2 |
| --- | --- | --- |
| FKBP12-Casp9/FRB-FRBw: Caspase 9 catalytic domain fused to FKBP12, co-expressed with a fusion of two copies of FRB | effective deletion of single positive cells | – |
| FKBP12-FRB-Casp9: single construct where FKBP12 and FRB are fused together and then fused to the catalytic domain of Casp9 by a flexible linker | effective deletion of single positive cells | – |
| FKBP12-Casp9: catalytic domain of Casp9 fused with FKBP12; tested co-expressed with FRB-Casp9 | effective deletion of only double positive cells | very effectively deleted |
| B1 | effective deletion of only double positive cells | very effectively deleted |
